According to US6924302B2, “Substituted triazole diamine derivatives as kinase inhibitors” (Ortho McNeil Pharmaceutical, Inc., priority 2000, dated 2005):
pIC50: −log10 of the molar value. Where two headings read alike, the source gives them in different places.

Experiments:
[1] = biological target: T1, Glycogen Synthase Kinase-3 (beta isoform) (Oryctolagus cuniculus, UniProt G1T8E2); assay: Kinase Selectivity Assay Glycogen Synthase Kinase-3; assay type: biochemical, rabbit; conditions: Kinase Selectivity, Tables 2a-2k; read-out: GSK-3 IC50
T1 construct: purchased New England Biolabs 6040; host or cells: E. coli
T1 sequence (G1T8E2 1-432): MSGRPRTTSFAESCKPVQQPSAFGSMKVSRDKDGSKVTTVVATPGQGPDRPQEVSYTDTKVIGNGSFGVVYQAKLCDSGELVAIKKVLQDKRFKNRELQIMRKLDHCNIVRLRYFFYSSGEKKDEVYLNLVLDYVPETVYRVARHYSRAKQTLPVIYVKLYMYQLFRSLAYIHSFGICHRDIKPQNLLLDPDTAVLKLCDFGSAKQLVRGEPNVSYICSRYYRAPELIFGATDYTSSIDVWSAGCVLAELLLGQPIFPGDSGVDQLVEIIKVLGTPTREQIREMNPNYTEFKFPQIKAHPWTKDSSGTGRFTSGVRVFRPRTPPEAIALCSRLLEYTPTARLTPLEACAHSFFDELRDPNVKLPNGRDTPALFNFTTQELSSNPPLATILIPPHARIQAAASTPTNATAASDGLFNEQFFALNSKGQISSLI
Experimental: (§1) Assays to test compound inhibition of other kinases were preformed using methods that measure the amount of phosphorylation of a biotinylated peptide substrate. Biotinylated peptide substrates were selected from the literature as appropriate for the enzyme being evaluated. […] Assay conditions vary slightly for each protein kinase, for example, insulin receptor kinase requires 10 mM MnCl2 for activity and Calmodulin-dependent protein kinase requires calmodulin and 10 mM CaCl2. These assay conditions are known in the art. The reaction mixture was dispensed into the wells of a streptavidin coated Flashplate and 1 μl drug stock in 100% DMSO was added to a 100 μl reaction volume resulting in a final concentration of 1% DMSO on the reaction. Enzyme was diluted in 50 mM Tris-HCl pH=8.0, 0.1% BSA and add to each well. The reaction was incubated for one hour at 30° C. in the presence of compound. After one hour the reaction mix was aspirated from the plate and the plate was washed with PBS containing 100 mM EDTA. The plate was read on a scintillation counter to determine ^33P-γ-ATP incorporated into the immobilized peptide. Test compounds were assayed in duplicate at 8 concentrations [100 uM, 10 uM, 1 uM, 100 nM, 10 nM, 1 nM, 100 pM, 10 pM]. A maximum and minimum signal for the assay was determined on each plate. The IC50 was calculated from the dose response curve of the percent inhibition of the maximum signal in the assay according to the formula [max signal—background/test compound signal—background (100)=% inhibition] by graphing the percent inhibition against the log concentration of test compound. Known inhibitor compounds appropriate for the kinase being assayed were also included on each plate.
(§2) CDK2 in complex with cyclin A is commercially available (Upstate Biotech, Lake Placid, N.Y.). The CDK4 complex was composed of a mouse CDK4 protein and a mouse Cyclin D1 protein (The mouse CDK4 protein was genetically fused to an N-terminal Flag-epitope tag and the mouse Cyclin D1 protein was fused with an N-terminal AU-1 epitope tag. The genes encoding these proteins were transferred to commercially available baculoviral vectors. The recombinant CDK4/D1 complex was then made by co-infecting commercially available insect cells with viruses carrying these two constructs). […] ERK-1 protein (Discontinued from Calbiochem). EGFR (epidermal growth factor receptor) is purified from human A431 cell membranes (Sigma, St. Louis, Mo., Cat.# E3641).

[2] = biological target: T2, VEGF-R (vascular endothelial growth factor receptor-2) (Rattus norvegicus, UniProt O08775); assay: VEGF-R Screening Assay; assay type: biochemical; conditions: read-out: VEGF-R IC50
T2 construct: polyhistidine (6xHIS) (N)
T2 sequence (O08775 786-1343): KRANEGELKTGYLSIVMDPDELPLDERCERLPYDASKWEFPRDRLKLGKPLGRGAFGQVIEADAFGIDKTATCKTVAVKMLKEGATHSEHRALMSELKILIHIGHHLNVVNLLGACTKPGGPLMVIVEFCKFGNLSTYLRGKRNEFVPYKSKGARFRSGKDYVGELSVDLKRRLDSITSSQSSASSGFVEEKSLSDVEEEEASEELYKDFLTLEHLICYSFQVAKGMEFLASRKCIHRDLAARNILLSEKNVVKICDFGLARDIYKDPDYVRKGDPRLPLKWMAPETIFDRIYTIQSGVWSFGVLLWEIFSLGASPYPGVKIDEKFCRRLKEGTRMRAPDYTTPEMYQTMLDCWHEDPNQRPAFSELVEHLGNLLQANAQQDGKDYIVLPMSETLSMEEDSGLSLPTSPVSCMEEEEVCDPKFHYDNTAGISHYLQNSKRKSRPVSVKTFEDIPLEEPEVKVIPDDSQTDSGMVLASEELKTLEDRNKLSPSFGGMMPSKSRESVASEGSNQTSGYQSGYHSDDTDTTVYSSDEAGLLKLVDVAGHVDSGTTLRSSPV

[3] = biological target: T3, HER2 (human epidermal growth factor receptor-2) (Homo sapiens, UniProt P04626); assay: Kinase Selectivity Assay HER2; assay type: biochemical; conditions: Kinase Selectivity, Tables 2a-2k; read-out: HER2 Kinase IC50
T3 construct: begins at amino acid 676 followed by the remainder of the HER2 cytoplasmic domain; polyhistidine (N)
T3 sequence (P04626 676-1255 limits assumed): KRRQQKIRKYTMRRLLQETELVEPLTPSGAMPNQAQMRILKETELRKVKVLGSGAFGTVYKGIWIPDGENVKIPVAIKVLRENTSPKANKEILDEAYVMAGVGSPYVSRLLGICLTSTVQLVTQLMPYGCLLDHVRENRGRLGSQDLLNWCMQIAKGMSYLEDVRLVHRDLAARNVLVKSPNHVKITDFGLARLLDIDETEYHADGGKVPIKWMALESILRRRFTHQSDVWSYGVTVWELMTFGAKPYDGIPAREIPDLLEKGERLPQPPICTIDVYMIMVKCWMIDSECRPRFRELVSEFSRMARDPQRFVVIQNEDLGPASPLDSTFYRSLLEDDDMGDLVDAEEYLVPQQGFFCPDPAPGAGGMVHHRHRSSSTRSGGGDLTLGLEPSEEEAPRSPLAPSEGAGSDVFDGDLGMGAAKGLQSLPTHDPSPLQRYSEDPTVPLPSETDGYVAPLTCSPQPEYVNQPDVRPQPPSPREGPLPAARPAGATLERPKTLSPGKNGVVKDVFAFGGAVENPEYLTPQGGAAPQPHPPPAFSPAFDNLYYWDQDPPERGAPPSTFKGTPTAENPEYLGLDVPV
Summary of the method: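 Inhibition was measured as reduced ^33P-γ-ATP labelling of a biotinylated peptide substrate immobilized on streptavidin plates after one hour at 30° C.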

[4] = biological target: T4, CDK2 in complex with cyclin A (Homo sapiens, UniProt P24941); assay: Kinase Selectivity Assay CDK2; assay type: biochemical
T4 construct: purchased Upstate Biotech
Experimental: as §1, §2

CDK1:Cyclin-B = biological target: T5, CDK1:Cyclin-B (Homo sapiens, UniProt P06493); assay: CDK1 Screening Assay; assay type: biochemical; conditions: Kinase Selectivity, Tables 2a-2k; read-out: CDK1 IC50
T5 construct: purchased New England Biolabs 6020; host or cells: insect cells
T5 sequence (P06493 whole entry): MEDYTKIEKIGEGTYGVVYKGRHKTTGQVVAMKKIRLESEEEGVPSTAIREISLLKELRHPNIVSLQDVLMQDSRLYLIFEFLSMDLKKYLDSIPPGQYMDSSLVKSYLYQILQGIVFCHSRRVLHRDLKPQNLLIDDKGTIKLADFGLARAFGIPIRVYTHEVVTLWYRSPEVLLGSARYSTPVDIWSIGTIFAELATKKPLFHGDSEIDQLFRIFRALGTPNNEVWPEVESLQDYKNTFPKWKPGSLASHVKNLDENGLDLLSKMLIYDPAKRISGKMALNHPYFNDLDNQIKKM
T5 sequence (P14635 whole entry partner): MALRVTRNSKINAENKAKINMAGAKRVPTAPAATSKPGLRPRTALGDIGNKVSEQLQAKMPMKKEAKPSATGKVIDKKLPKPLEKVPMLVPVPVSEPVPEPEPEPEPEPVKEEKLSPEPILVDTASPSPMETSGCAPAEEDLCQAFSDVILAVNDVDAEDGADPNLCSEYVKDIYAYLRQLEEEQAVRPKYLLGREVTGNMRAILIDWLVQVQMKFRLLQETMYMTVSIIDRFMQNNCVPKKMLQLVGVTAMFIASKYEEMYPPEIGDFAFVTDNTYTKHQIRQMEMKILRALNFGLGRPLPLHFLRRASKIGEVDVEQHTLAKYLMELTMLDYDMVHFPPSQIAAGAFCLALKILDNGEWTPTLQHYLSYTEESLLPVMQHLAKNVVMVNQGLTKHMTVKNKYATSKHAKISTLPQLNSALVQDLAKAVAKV
Summary of the method: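 Human CDK1:cyclin-B (30 ng/well) with biotinylated histone-H1 peptide and ^33P-γ-ATP, 1 h at 30° C, 1% DMSO, on streptavidin FlashPlate; incorporation read by scintillation.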

[5] = biological target: T6, MAP Kinase (ERK-2 isoform) (Rattus norvegicus, UniProt P63086); assay: Kinase Selectivity Assay MAP Kinase (ERK-2); assay type: biochemical; conditions: Kinase Selectivity, Tables 2a-2k; read-out: ERK 2 IC50
T6 construct: polyhistidine (N); host or cells: E. coli
T6 sequence (P63086 whole entry, canonical isoform): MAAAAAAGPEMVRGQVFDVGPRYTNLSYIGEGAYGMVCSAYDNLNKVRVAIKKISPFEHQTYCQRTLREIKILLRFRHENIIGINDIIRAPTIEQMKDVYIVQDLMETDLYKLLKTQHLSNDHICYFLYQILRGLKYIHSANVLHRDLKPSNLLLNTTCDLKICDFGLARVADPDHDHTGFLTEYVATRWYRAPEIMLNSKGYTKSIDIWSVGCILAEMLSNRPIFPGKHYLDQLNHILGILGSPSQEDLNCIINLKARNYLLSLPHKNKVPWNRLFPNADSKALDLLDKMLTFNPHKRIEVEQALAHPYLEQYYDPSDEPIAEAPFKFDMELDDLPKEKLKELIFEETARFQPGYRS
Experimental: as §1, §2

[6] = biological target: T7, Casein Kinase 2 (alpha and beta subunits) (Homo sapiens, UniProt P68400); assay: Kinase Selectivity Assay Casein Kinase 2; assay type: biochemical; conditions: Kinase Selectivity, Tables 2a-2k; read-out: Caseine Kinase 2 IC50
T7 construct: purchased New England Biolabs 6010; host or cells: E. coli
T7 sequence (P68400 whole entry): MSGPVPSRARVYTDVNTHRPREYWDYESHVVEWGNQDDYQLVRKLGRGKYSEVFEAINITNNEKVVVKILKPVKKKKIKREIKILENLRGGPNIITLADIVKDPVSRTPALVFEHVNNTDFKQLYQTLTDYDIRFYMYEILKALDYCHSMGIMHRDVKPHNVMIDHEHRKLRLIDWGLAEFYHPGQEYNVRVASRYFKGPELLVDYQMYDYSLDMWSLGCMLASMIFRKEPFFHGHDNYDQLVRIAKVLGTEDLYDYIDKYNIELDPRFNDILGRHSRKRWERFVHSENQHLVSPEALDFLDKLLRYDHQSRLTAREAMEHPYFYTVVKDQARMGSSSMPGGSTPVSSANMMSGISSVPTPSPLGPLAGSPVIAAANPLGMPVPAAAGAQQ
T7 sequence (P67870 whole entry partner): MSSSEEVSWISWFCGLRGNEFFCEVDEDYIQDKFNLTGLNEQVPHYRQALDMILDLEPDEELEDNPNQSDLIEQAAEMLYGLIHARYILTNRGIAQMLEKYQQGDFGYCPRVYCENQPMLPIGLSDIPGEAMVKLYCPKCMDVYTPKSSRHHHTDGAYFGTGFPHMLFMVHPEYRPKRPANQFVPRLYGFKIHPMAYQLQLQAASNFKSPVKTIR
Experimental: as §1, §2

[7] = biological target: T8, Calmodulin Kinase (calmodulin-dependent protein kinase 2) (Rattus norvegicus, UniProt P11275); assay: Kinase Selectivity Assay Calmodulin Kinase; assay type: biochemical; conditions: Kinase Selectivity, Tables 2a-2k; read-out: Calmodulin Kinase 2 IC50
T8 construct: a truncated version of the alpha subunit of the rat protein; purchased New England Biolabs 6060; host or cells: insect cells
Experimental: as §1, §2

Protein Kinase A = biological target: T9, Protein Kinase A (Bos taurus, UniProt P00517); assay: Kinase Selectivity Assay Protein Kinase A; assay type: biochemical, bovine; conditions: Kinase Selectivity, Tables 2a-2k; read-out: PKA IC50
T9 construct: purified from bovine heart; purchased Upstate Biotech 14-114; host or cells: bovine heart
Experimental: as §1, §2

[8] = tested on: HeLa cervical adenocarcinoma; assay: Inhibition of Cell Proliferation (14C-thymidine incorporation), HeLa; assay type: cell-based; conditions: Homo sapiens, HeLa cell line
Experimental: (§3) The ability of a test compound to inhibit the proliferation of cell growth was determined by measuring incorporation of ^14C-labelled thymidine into newly synthesized DNA within the cells. This method was used on cell lines derived from carcinomas originating from several tissues such as HeLa cervical adenocarcinoma (American Type Culture Collection (ATCC), Virginia, Cat. #CCL-2), A375 malignant melanoma (ATCC CRL-1619), SK-OV-3 ovarian adenocarcinoma (ATCC HTB-77) HCT-116 colon carcinoma (CCL-247), PC-3 prostate adenocarcinoma (ATCC CRL-1435), and MDA-MB-231 (Xenogen Corp.) In this way the effect of a compound on cell growth of cells with many different phenotypes can be determined. Cells were trypsinized and counted and 3000-8000 cells were added to each well of a 96-well CytoStar tissue culture treated scintillating microplate (Amersham #RPNQ0160) in complete medium in a volume of 100 μl. Cells were incubated for 24 hours in complete medium at 37° C. in an atmosphere containing 5% CO2. Next, 1 μl of test compound in 100% DMSO was added to the wells of the plate. DMSO only was added to control wells. Cells were incubated for 24 more hours in complete medium at 37° C. in an atmosphere containing 5% CO2. Methyl ^14C-thymidine 56 mCi/mmol (NEN #NEC568 or Amersham #CFA532) was diluted in complete medium and 0.2 uCi/well was added to each well of the CytoStar plate in a volume of 20 μl. The plate was incubated for 24 hours at 37° C. plus 5% CO2 in drug plus ^14C-thymidine. The contents of the plate were discarded into a ^14C radioactive waste container by inverting the plate and the plate was washed twice with 200 μl PBS. 200 μl of PBS is added to each well. The top of the plate was sealed with a transparent plate sealer and a white plate backing sealer (Packard #6005199) was applied to the bottom of the plate. The degree of methyl ^14C-thymidine incorporation was quantified on a Packard Top Count.

HCT-116 colon carcinoma = assay: Inhibition of Cell Proliferation (14C-thymidine incorporation), HCT-116; assay type: cell-based; conditions: Homo sapiens, HCT-116 cell line
Experimental: as §3

[9] = biological target: T10, Casein Kinase 1 (CK1 delta isoform) (Rattus norvegicus, UniProt Q06486); assay: Kinase Selectivity Assay Casein Kinase 1; assay type: biochemical; conditions: Tables 2a-2k, read-out: Caseine Kinase 1 IC50
T10 construct: a truncation at amino acid 318 of the C-terminal portion of the rat CK1 delta isoform; purchased New England Biolabs 6030; host or cells: E. coli
T10 sequence (Q06486 1-317): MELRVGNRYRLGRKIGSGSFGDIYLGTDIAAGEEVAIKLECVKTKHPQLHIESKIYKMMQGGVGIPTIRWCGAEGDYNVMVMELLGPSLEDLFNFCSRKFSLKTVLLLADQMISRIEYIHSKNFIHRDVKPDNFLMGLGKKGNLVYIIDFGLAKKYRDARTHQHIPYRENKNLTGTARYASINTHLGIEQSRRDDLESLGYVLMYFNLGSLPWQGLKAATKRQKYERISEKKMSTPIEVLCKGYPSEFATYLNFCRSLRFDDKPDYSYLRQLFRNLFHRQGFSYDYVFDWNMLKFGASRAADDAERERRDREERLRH
Experimental: as §1, §2

Insulin Receptor Kinase = Insulin Receptor Kinase (Homo sapiens, UniProt P06213); assay: Kinase Selectivity Assay Insulin Receptor Kinase; assay type: biochemical; conditions: Kinase Selectivity, Tables 2a-2k; read-out: Insulin R Kinase IC50
Insulin Receptor Kinase, sequence (P06213 980-1352): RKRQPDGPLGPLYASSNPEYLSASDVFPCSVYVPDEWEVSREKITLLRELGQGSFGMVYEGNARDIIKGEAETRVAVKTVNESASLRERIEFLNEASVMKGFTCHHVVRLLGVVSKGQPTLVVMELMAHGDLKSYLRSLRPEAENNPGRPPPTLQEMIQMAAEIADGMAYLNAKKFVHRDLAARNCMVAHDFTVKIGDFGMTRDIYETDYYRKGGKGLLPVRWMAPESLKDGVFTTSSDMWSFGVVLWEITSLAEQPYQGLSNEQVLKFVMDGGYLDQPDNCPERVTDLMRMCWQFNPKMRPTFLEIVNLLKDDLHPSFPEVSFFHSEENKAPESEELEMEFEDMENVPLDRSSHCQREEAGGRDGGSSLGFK
Experimental: as §1, §2

A375 malignant melanoma = assay: Inhibition of Cell Proliferation (14C-thymidine incorporation), A375; assay type: cell-based; conditions: Homo sapiens, A-375, A375 cell line
Experimental: as §3

[10] = biological target: T11, PDGF-R (platelet derived growth factor receptor) beta subunit kinase domain (Homo sapiens, UniProt P09619); assay: Kinase Selectivity Assay PDGF-R; assay type: biochemical; conditions: Kinase Selectivity, Tables 2a-2k; read-out: PDGF-R kinase IC50
T11 construct: nucleotides 1874-3507 of the human PDGF-R beta subunit kinase domain; polyhistidine (N)
T11 sequence (P09619 564-1106): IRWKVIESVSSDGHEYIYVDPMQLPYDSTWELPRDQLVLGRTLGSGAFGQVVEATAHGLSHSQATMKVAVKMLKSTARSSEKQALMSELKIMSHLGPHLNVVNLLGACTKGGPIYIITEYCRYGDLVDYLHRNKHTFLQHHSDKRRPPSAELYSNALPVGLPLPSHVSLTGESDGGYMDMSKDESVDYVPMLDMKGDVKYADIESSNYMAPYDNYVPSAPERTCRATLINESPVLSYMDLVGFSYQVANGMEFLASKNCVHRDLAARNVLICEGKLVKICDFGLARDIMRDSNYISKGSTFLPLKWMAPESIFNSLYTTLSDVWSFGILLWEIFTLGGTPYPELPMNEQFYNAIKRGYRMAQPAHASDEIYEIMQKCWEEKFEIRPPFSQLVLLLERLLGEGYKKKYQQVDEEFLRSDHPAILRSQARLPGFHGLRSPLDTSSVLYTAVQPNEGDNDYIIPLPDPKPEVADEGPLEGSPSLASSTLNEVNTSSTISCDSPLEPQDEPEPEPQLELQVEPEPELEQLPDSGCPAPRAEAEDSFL
Experimental: as §1, §2

[11] = Kinase Selectivity, Tables 2a-2k

Nc1nc(Nc2ccccc2)nn1C(=O)c1c(F)cccc1F [Cpd 61, 1-(2,6-Difluorobenzoyl)-N^3-phenyl-1H-1,2,4-triazole-3,5-diamine]
pIC50 [1]: 7.26 | pIC50 [2, 11]: 7.14 | pIC50 [3]: 6.09 | pIC50 [4, 11]: 7.31 | pIC50 (CDK1:Cyclin-B): 6.74

Nc1nc(Nc2ccccc2)nn1C(=O)c1ccccc1 [Cpd 62, 1-benzoyl-N^3-phenyl-1H-1,2,4-triazole-3,5-diamine]
pIC50 [1]: 7.14 | pIC50 [2, 11]: 7.19 | pIC50 [3]: 6.39 | pIC50 [4, 11]: 6.54 | pIC50 (CDK1:Cyclin-B): 6.28

Nc1nc(Nc2cccc(Cl)c2)nn1C(=O)c1c(F)cccc1F [Cpd 63, N^3-(3-chlorophenyl)-1-(2,6-difluorobenzoyl)-1H-1,2,4-triazole-3,5-diamine]
pIC50 [1]: 7.14 | pIC50 [2, 11]: 6.49 | pIC50 [3]: 6.82 | pIC50 [4, 11]: 7.25 | pIC50 (CDK1:Cyclin-B): 7.10

Nc1nc(Nc2cccc(Cl)c2)nn1C(=O)c1ccccc1 [Cpd 64, 1-benzoyl-N^3-(3-chlorophenyl)-1H-1,2,4-triazole-3,5-diamine]
pIC50 [1]: 7.68 | pIC50 [2, 11]: 7.29 | pIC50 [3]: 7.12 | pIC50 [4, 11]: 6.70 | pIC50 (CDK1:Cyclin-B): 6.68

Nc1nc(Nc2ccccc2)nn1C(=O)Nc1ccccc1 [Cpd 65, 5-amino-N-phenyl-3-(phenylamino)-1H-1,2,4-triazole-1-carboxamide]
pIC50 [1]: 7.00 | pIC50 [2, 11]: 6.74 | pIC50 [3]: 6.10 | pIC50 [4, 11]: 6.39 | pIC50 (CDK1:Cyclin-B): 6.17

Cc1ccc(F)c(C(=O)n2nc(Nc3ccc(N4CCNC4=O)cc3)nc2N)c1F [Cpd 114, 1-[4-[[5-amino-1-(2,6-difluoro-3-methylbenzoyl)-1H-1,2,4-triazol-3-yl]amino]phenyl]-2-imidazolidinone]
pIC50 [1]: 6.37 | pIC50 [5]: 4.80 | pIC50 [6]: < 4.00 | pIC50 [7]: < 4.00 | pIC50 (Protein Kinase A): < 4.00 | IC50 [8]: 2530 nM | IC50 (HCT-116 colon carcinoma): 1380 nM | pIC50 [9]: 5.70 | pIC50 (Insulin Receptor Kinase): < 4.00 | IC50 (A375 malignant melanoma): 1690 nM | pIC50 [10]: 4.86

Nc1nc(Nc2ccc(N3CCNC3=O)cc2)nn1C(=O)c1c(F)cccc1F [Cpd 115, 1-[4-[[5-amino-1-(2,6-difluorobenzoyl)-1H-1,2,4-triazol-3-yl]amino]phenyl]-2-imidazolidinone]
pIC50 [1]: 6.41 | pIC50 [5]: < 5.00 | pIC50 [6]: < 4.00 | pIC50 [7]: < 4.00 | pIC50 (Protein Kinase A): < 4.00 | IC50 [8]: 676 nM | IC50 (HCT-116 colon carcinoma): 486 nM | pIC50 [9]: 5.00 | pIC50 (Insulin Receptor Kinase): < 5.00 | IC50 (A375 malignant melanoma): 529 nM | pIC50 [10]: < 5.00

Cc1ccsc1C(=O)n1nc(Nc2ccc(S(=O)(=O)Nc3ccccn3)cc2)nc1N [Cpd 121]
pIC50 [1]: 7.54 | pIC50 [5]: < 4.00 | pIC50 [6]: < 4.00 | pIC50 [7]: < 4.00 | pIC50 (Protein Kinase A): < 4.00 | IC50 [8]: 310 nM | IC50 (HCT-116 colon carcinoma): 608 nM | pIC50 [9]: < 5.00 | pIC50 ([4]; Table 1): 8.52 | pIC50 (Insulin Receptor Kinase): < 4.00 | IC50 (A375 malignant melanoma): 215 nM | pIC50 [10]: 6.40

Nc1nc(Nc2ccccc2)n(C(=O)c2c(F)cccc2F)n1 [Cpd 124, 1-(2,6-difluorobenzoyl)-N^5-phenyl-1H-1,2,4-triazole-3,5-diamine]
pIC50 [1]: 5.52 | pIC50 [2, 11]: 5.32 | pIC50 [3]: 6.09 | pIC50 [4, 11]: 5.77 | pIC50 (CDK1:Cyclin-B): 5.66

Nc1nc(Nc2ccccc2)n(C(=O)c2ccccc2)n1 [Cpd 125, 1-benzoyl-N^5-phenyl-1H-1,2,4-triazole-3,5-diamine]
pIC50 [1]: < 4.00 | pIC50 [2, 11]: < 4.00 | pIC50 [3]: < 4.00 | pIC50 [4, 11]: 5.14 | pIC50 (CDK1:Cyclin-B): < 4.00

Nc1nc(Nc2ccc(S(N)(=O)=O)cc2)n(C(=S)Nc2c(F)cccc2F)n1 [Cpd 128, 3-amino-5-[[4-(aminosulfonyl)phenyl]amino]-N-(2,6-difluorophenyl)-1H-1,2,4-triazole-1-carbothioamide]
pIC50 [1]: 7.03 | pIC50 [5]: 5.68 | pIC50 [6]: < 4.00 | pIC50 [2, 11]: 6.93 | pIC50 ([2]; Table 1): 6.93 | pIC50 [7]: 4.88 | pIC50 (Protein Kinase A): < 4.00 | pIC50 [9]: 5.05 | pIC50 ([4]; Table 1): 8.48 | pIC50 (Insulin Receptor Kinase): 5.58 | pIC50 [10]: 5.72
